Assay results taken from the Deep4Chem optical property database.
Each block holds one compound with its values, some of them ahead of it.

Test: solvent given as SMILES

- fluorescence lifetime (in ClC(Cl)Cl): 5.4 ns
SMILES: Cc1ccc(-c2oc3cccc4c5c(-c6ccc(C)cc6)/c(=N/S(=O)(=O)C(F)(F)F)oc6cccc(c2c34)c65)cc1

- fluorescence lifetime (in C1CCOC1): 2.82 ns
- fluorescence lifetime (in CC(C)O): 1.8 ns
- fluorescence lifetime (in CO): 1.5 ns
- fluorescence lifetime (in CS(C)=O): 2.2 ns
- fluorescence lifetime (in ClC(Cl)Cl): 0.96 ns
- fluorescence lifetime (in ClCCl): 3.82 ns
SMILES: COc1ccccc1-c1c(-c2ccccc2O)nc(-c2ccc(C(F)(F)F)cc2)n1-c1ccc(C)cc1

- fluorescence lifetime (in C1CCOC1): 2.1 ns
SMILES: COc1cc2c(cc1-c1ccc(C#N)cc1)Cc1c3c(c4c(c1-2)-c1cc(OC)c(-c2ccc(C#N)cc2)cc1C4)C(=O)N(CCC(C)C)C3=O

- fluorescence lifetime (in O): 11.5 ns
SMILES: CCOC(=O)CCCCCn1c2ccc(N)cc2c(=O)c2cc(N)ccc21

- fluorescence lifetime (in C1CCOC1): 12.3 ns
- fluorescence lifetime (in CN(C)C=O): 12.5 ns
SMILES: O=C(O)c1ccc2cc3cc(C(=O)O)ccc3cc2c1

- fluorescence lifetime (in ClCCl): 4.77 ns
SMILES: Cn1c(=O)cc(C(=O)c2ccccc2)c2sc(-c3ccc(OC(F)(F)F)cc3)cc21

- fluorescence lifetime (in CS(C)=O): 1.07 ns
SMILES: Cc1ccc(-c2nc(-c3ccc(-c4nc(-c5ccc(C)cc5)c(-c5ccc(C)cc5)[nH]4)cc3)[nH]c2-c2ccc(C)cc2)cc1

- fluorescence lifetime (in ClCCl): 0.42 ns
SMILES: CCCCC(CC)COc1ccc2nc(-c3ccc(-c4cccs4)s3)sc2c1 (stereo not drawn)

- fluorescence lifetime (in CC#N): 1.69 ns
- fluorescence lifetime (in CCO): 2.94 ns
- fluorescence lifetime (in CN(C)C=O): 2.16 ns
- fluorescence lifetime (in O): 1.74 ns
SMILES: CCOC(=O)c1ccccc1-c1c2ccc(=[N+](CC)CC)cc-2oc2cc(N(CC)CC)ccc12

- fluorescence lifetime (in CC#N): 131 ns
SMILES: COC(=O)C12N=N[C@](C(=O)OC)(C3C4C=CC(C4)C31)[C@@H]1C[C@H]12 (stereo partly drawn)

- fluorescence lifetime (in C1CCOC1): 1.1 ns
SMILES: CC(C)(C)c1ccc(C2=C(c3ccc(-n4c5ccc(C(C)(C)C)cc5c5cc(C(C)(C)C)ccc54)cc3)S(=O)(=O)c3c2sc(-c2ccc(-n4c5ccc(C(C)(C)C)cc5c5cc(C(C)(C)C)ccc54)cc2)c3-c2ccc(C(C)(C)C)cc2)cc1

- fluorescence lifetime (in CC#N): 16.9 ns
SMILES: COc1cc(/C=C/c2ccccc2)cc(OC)c1

- fluorescence lifetime (in CC#N): 3.9 ns
SMILES: Cc1cc(C)c2nc3c(=O)n(C)c(=O)nc-3n(C)c2c1

- fluorescence lifetime (in ClC(Cl)Cl): 0.7 ns
SMILES: C(#Cc1ccccc1)C(C#Cc1ccccc1)=Cc1ccc(-c2ccc(C=C(C#Cc3ccccc3)C#Cc3ccccc3)cc2)cc1

- fluorescence lifetime (in ClCCl): 1.17 ns
SMILES: c1ccc(N2N=C(c3c4ccccc4cc4ccccc34)CC2c2ccc3ccc4cccc5ccc2c3c45)cc1 (stereo not drawn)

- fluorescence lifetime (in CCO): 3 ns
- fluorescence lifetime (in ClCCl): 3.8 ns
SMILES: CCN(CC)c1ccc2cc(C#N)/c(=N\C(=O)c3ccc(F)cc3)oc2c1

- fluorescence lifetime (in CC#N): 5.3 ns
SMILES: Fc1nc(F)c(F)c(C#Cc2cc3c(cc2C#Cc2c(F)c(F)nc(F)c2F)OC2(CCCCC2)O3)c1F

- fluorescence lifetime (in CC(C)O): 0.66 ns
- fluorescence lifetime (in CCO): 0.565 ns
- fluorescence lifetime (in CO): 0.5 ns
- fluorescence lifetime (in O): 0.115 ns
SMILES: O=C([O-])c1ccccc1-c1c2cc(I)c(=O)c(I)c-2oc2c(I)c([O-])c(I)cc12

- fluorescence lifetime (in C1CCOC1): 3.89 ns
SMILES: F[B-]1(F)n2c(/C=C/c3ccc(C(=C(c4ccccc4)c4ccccc4)c4ccccc4)cc3)ccc2C(c2ccc(C(=C(c3ccccc3)c3ccccc3)c3ccccc3)cc2)=C2C=CC(/C=C/c3ccc(C(=C(c4ccccc4)c4ccccc4)c4ccccc4)cc3)=[N+]21

- fluorescence lifetime (in CCO): 1.8 ns
- fluorescence lifetime (in ClCCl): 4 ns
SMILES: CCN(CC)c1ccc2cc(C#N)/c(=N\C(C)=O)oc2c1

- fluorescence lifetime (in CC#N): 20.3 ns
- fluorescence lifetime (in CCCCCC): 15.3 ns
- fluorescence lifetime (in CCO): 11.6 ns
- fluorescence lifetime (in CO): 5.9 ns
- fluorescence lifetime (in ClCCl): 24.4 ns
SMILES: CCCCCC(=O)c1c2c(c(C(=O)CCCCC)c3c1OC1(CCCC1)O3)OC1(CCCC1)O2

Continued, compound first:

SMILES: c1cc2ccc3cccc4c(-c5cc(-c6nccs6)nc(-c6nccs6)c5)cc(c1)c2c34
- fluorescence lifetime (in CC#N): 2.9 ns
- fluorescence lifetime (in CCCCCC): 3.24 ns
- fluorescence lifetime (in CO): 3.2 ns
- fluorescence lifetime (in ClC(Cl)Cl): 2.41 ns

SMILES: CCCCCCCCCCCCCCCCN(CCCCCCCCCCCCCCCC)c1ccc(/C=C/c2cc[n+](Cc3cc(C[n+]4ccc(/C=C/c5ccc(N(CCCCCCCCCCCCCCCC)CCCCCCCCCCCCCCCC)cc5)cc4)cc(C[n+]4ccc(/C=C/c5ccc(N(CCCCCCCCCCCCCCCC)CCCCCCCCCCCCCCCC)cc5)cc4)c3)cc2)cc1
- fluorescence lifetime (in CCCCCCCCO): 0.8 ns
- fluorescence lifetime (in CCO): 0.17 ns
- fluorescence lifetime (in CO): 0.11 ns
- fluorescence lifetime (in ClC(Cl)Cl): 0.92 ns
- fluorescence lifetime (in ClCCl): 0.74 ns

SMILES: CC(C)(C)c1ccc(N2c3ccc(C(C)(C)C)cc3B3c4cc(C(C)(C)C)ccc4N(c4ccc(C(C)(C)C)cc4)c4cc(-n5c6ccc(C(C)(C)C)cc6c6cc(C(C)(C)C)ccc65)cc2c43)cc1
- fluorescence lifetime (in Cc1ccccc1): 6.02 ns

SMILES: O=C1C(=c2c(=O)c3c4ccccc4cc4cc5ccccc5c2c43)C(=O)c2ccccc21
- fluorescence lifetime (in C1CCOC1): 10.7 ns
- fluorescence lifetime (in CC#N): 6.9 ns
- fluorescence lifetime (in CCCCCC): 12.4 ns
- fluorescence lifetime (in Cc1ccccc1): 11.3 ns
- fluorescence lifetime (in ClCCl): 8.7 ns

SMILES: c12c3c4c5c1c1c6c7c2c2c8c3c3c9c4c4c%10c5c5c1c1c6c6c%11c%12c%13c%14c%15c%16c%17c%14c%14c%18c%13c%11c1c1c5c%10c5c(c%14c%10c%17c%11c%13c%16c%14c%16c%15c%12c%12c%16c(c2c7c%126)c2c8c3c(c%13c%142)c2c9c4c5c%10c%112)c%181
- fluorescence lifetime (in CC1CCCCC1): 0.65 ns

SMILES: O=Cc1ccc(N(c2ccc(C=O)cc2)c2ccc(-c3ccc4c(c3)C(=O)c3ccccc3C4=O)cc2)cc1
- fluorescence lifetime (in C1CCOC1): 2.01 ns
- fluorescence lifetime (in CCOC(C)=O): 1.49 ns
- fluorescence lifetime (in CCOCC): 6.6 ns
- fluorescence lifetime (in Cc1ccccc1): 6.83 ns
- fluorescence lifetime (in ClC(Cl)(Cl)Cl): 2.82 ns
- fluorescence lifetime (in ClCCl): 0.79 ns

SMILES: Nc1ccc2ccc([O-])cc2c1
- fluorescence lifetime (in O): 2.27 ns

SMILES: CN(C)c1ccc(C#Cc2cc3ccc4cc(C#Cc5ccc(N(C)C)cc5)cc5ccc(c2)c3c45)cc1
- fluorescence lifetime (in Cc1ccccc1): 60 ns

SMILES: CCCCn1c2ccc(C#Cc3cccs3)cc2c2c1c1c3ccc(C#Cc4cccs4)cc3n(CCCC)c1c1c3ccc(C#Cc4cccs4)cc3n(CCCC)c21
- fluorescence lifetime (in C1CCOC1): 3.8 ns

SMILES: F[B-]1(F)OC(c2cccc(Br)c2)=Cc2c3ccccc3c3ccccc3[n+]21
- fluorescence lifetime (in ClC(Cl)Cl): 0.315 ns

SMILES: Cc1ccc(-c2ccccc2)cc1
- fluorescence lifetime (in C1CCCCC1): 20 ns

SMILES: CC1=C(C(C)(C)C)C(C)=[N+]2C1=C(C)c1c(C)c(C(C)(C)C)c(C)n1[B-]2(F)F
- fluorescence lifetime (in C1CCCCC1): 3.91 ns
- fluorescence lifetime (in C1CCOC1): 4.15 ns
- fluorescence lifetime (in C1COCCO1): 4.37 ns
- fluorescence lifetime (in CC#N): 4.27 ns
- fluorescence lifetime (in CC(C)=O): 4.34 ns
- fluorescence lifetime (in CC(C)CC(C)(C)C): 4.43 ns
- fluorescence lifetime (in CCC(C)C): 4.19 ns
- fluorescence lifetime (in CCCC(C)=O): 4.54 ns
- fluorescence lifetime (in CCCCCC): 4.35 ns
- fluorescence lifetime (in CCCCCCCCO): 4.68 ns
- fluorescence lifetime (in CCCCCCO): 4.59 ns
- fluorescence lifetime (in CCCCO): 4.33 ns
- fluorescence lifetime (in CCCCOC(C)=O): 4.51 ns
- fluorescence lifetime (in CCCO): 4.19 ns
- fluorescence lifetime (in CCO): 4.09 ns
- fluorescence lifetime (in CCOC(C)=O): 4.31 ns
- fluorescence lifetime (in CCOCC): 4.27 ns
- fluorescence lifetime (in CN(C)C=O): 4.69 ns
- fluorescence lifetime (in CNC=O): 4.45 ns
- fluorescence lifetime (in CO): 4.21 ns
- fluorescence lifetime (in COC(C)=O): 4.44 ns
- fluorescence lifetime (in OCC(F)(F)F): 4.64 ns

SMILES: Brc1cc(/C=C/c2ccc(N(c3ccccc3)c3ccccc3)cc2)c(Br)cc1/C=C/c1ccc(N(c2ccccc2)c2ccccc2)cc1
- fluorescence lifetime (in ClCCl): 0.89 ns

SMILES: O=C1NC(=O)c2ccc3c4ccc5c6c(ccc(c7ccc1c2c73)c64)C(=O)N(c1ccc(Cl)cc1)C5=O
- fluorescence lifetime (in CN(C)C=O): 3.1 ns

SMILES: Cc1cc(C)c(C)c(B(c2c(C)c(C)c(N3c4ccccc4Oc4ccccc43)c(C)c2C)c2c(C)c(C)c(N3c4ccccc4Oc4ccccc43)c(C)c2C)c1C
- fluorescence lifetime (in CC(C)(C)c1ccc(-n2c3ccc([Si](c4ccccc4)(c4ccccc4)c4ccccc4)cc3c3cc([Si](c4ccccc4)(c4ccccc4)c4ccccc4)ccc32)cc1): 2.9 ns

SMILES: C(#Cc1ccc(-n2c3ccccc3c3ccccc32)cc1)c1ccc(-c2nc(-c3ccc(C#Cc4ccc(-n5c6ccccc6c6ccccc65)cc4)cc3)nc(-c3ccc(C#Cc4ccc(-n5c6ccccc6c6ccccc65)cc4)cc3)n2)cc1
- fluorescence lifetime (in ClCCl): 4.16 ns

SMILES: CC1=C(Br)C(C)=[N+]2C1=C(c1c(-c3ccccn3)nc3ccccn13)c1c(C)c(Br)c(C)n1[B-]2(F)F
- fluorescence lifetime (in ClCCl): 0.9 ns

SMILES: CC(=O)[B-]1(C(C)=O)OC(c2ccccc2)=CC(c2ccccc2)=[O+]1
- fluorescence lifetime (in CC#N): 1.5 ns
- fluorescence lifetime (in ClC(Cl)(Cl)Cl): 2.1 ns

SMILES: CCCCCCCCN1c2ccc(C#Cc3ccc(C(F)(F)F)cc3)cc2Sc2cc(C=O)ccc21
- fluorescence lifetime (in C1CCOC1): 8.1 ns
- fluorescence lifetime (in CC#N): 6.52 ns
- fluorescence lifetime (in CCCCCC): 6.45 ns
- fluorescence lifetime (in CO): 4.04 ns
- fluorescence lifetime (in CS(C)=O): 7.77 ns
- fluorescence lifetime (in Cc1ccccc1): 7.43 ns
- fluorescence lifetime (in ClC(Cl)Cl): 7.03 ns

SMILES: CN(C)c1ccc(C(=Cc2ccc(C#N)cc2)c2ccc(N(C)C)cc2)cc1
- fluorescence lifetime (in C1CCOC1): 7.1 ns

SMILES: c1ccc(N(c2ccccc2)c2c3ccccc3c(N(c3ccccc3)c3ccccc3)c3ccccc23)cc1
- fluorescence lifetime (in Cc1ccccc1): 13 ns

SMILES: N#Cc1ccc(C2=CC3=c4cc(-c5ccc(C#N)cc5)c5nc(C(F)(F)C(F)(F)C(F)(F)F)nc6c(-c7ccc(C#N)cc7)cc(c4c65)C4=CC(c5ccc(C#N)cc5)=C5N=C(C(F)(F)C(F)(F)C(F)(F)F)N=C2C5C43)cc1 (stereo not drawn)
- fluorescence lifetime (in C1CCOC1): 2.8 ns

SMILES: C=CCNS(=O)(=O)c1ccc2c(c1)C(=O)/C(=C1\Sc3ccc(S(=O)(=O)NCC=C)cc3C1=O)S2
- fluorescence lifetime (in CN(C)C=O): 8.17 ns
- fluorescence lifetime (in CS(C)=O): 0.06 ns

SMILES: CCCCCCOc1ccc(/C=C/c2ccc(N(c3ccc(/C=C/c4ccc(OCCCCCC)cc4)cc3)c3ccc(-c4nc5ccccc5nc4-c4ccc(N(c5ccc(/C=C/c6ccc(OCCCCCC)cc6)cc5)c5ccc(/C=C/c6ccc(OCCCCCC)cc6)cc5)cc4)cc3)cc2)cc1
- fluorescence lifetime (in C1CCOC1): 2.05 ns

SMILES: c1cc2c3c(c1)OCCCCCCCOc1cccc(c1-c1c4ccccc4c-3c3ccccc13)OCCCCCCCO2
- fluorescence lifetime (in C1CCCCC1): 8.18 ns

SMILES: N#Cc1cc(N2c3ccccc3Oc3ccccc32)cc(N2c3ccccc3Oc3ccccc32)c1
- fluorescence lifetime (in Cc1ccccc1): 26.1 ns

SMILES: CCN1C(=O)C(C2C(=O)c3c4ccccc4cc4cc5ccccc5c2c34)C(=O)N(CC)C1=S (stereo not drawn)
- fluorescence lifetime (in C1CCOC1): 11.1 ns
- fluorescence lifetime (in CCCCCC): 13.1 ns
- fluorescence lifetime (in Cc1ccccc1): 12.4 ns
- fluorescence lifetime (in ClCCl): 10.5 ns

SMILES: Oc1ccc2cc(C3(O)C4CC5CC(C4)CC3C5)ccc2c1 (stereo not drawn)
- fluorescence lifetime (in CC#N): 8.14 ns

SMILES: O=CC12N=N[C@](C=O)(C3C4CCC(C4)C31)C1[C@@H]3CC[C@@H](C3)[C@H]12 (stereo partly drawn)
- fluorescence lifetime (in CC#N): 111 ns

SMILES: CCN(CC)c1ccc(-c2nc3c4ccccc4n(C)c3nc2-c2ccc(B(c3c(C)cc(C)cc3C)c3c(C)cc(C)cc3C)cc2)cc1
- fluorescence lifetime (in C1CCOC1): 9.21 ns

SMILES: O=c1c2cccc3cccc(c32)c2nc3c4ccccc4c4ccccc4c3n12
- fluorescence lifetime (in ClCCl): 5.5 ns
